Bounds are passed on as bounds.

In general, melting point refers to the temperature, or range, at which the solid turns liquid. Turning to `C#CC(CCCCC)OC(c1ccccc1)(c1ccccc1)c1ccccc1` (stereo not given), the melting point was 65 to 66.5 °C. `COc1ccc(-c2ocnc2-c2cc(OC)c(O)c(OC)c2)cc1N` showed a melting point of 101 to 102 °C. For the compound `CC(C)NC(=O)n1nc(N(C)C)n(C)c1=O`, the melting point lay within 36 to 38 °C. Turning to `CCCC(=O)N1CCc2nnc(NN=C(C)C)cc2C1`, the melting point was 152 to 154 °C. `CCN(C(=O)c1ccccc1C(=O)c1ccccc1)C(C)(C)CNS(=O)(=O)c1ccc(C)cc1`: the melting point fell in the range of 157 to 160 °C. For `CC(=O)c1ccc(-c2ncc[nH]2)cc1` the value was 213 to 216 °C; for `O=C1CCCN1CCCN=c1sc2ccccc2s1`, 101 to 104 °C.

As for `CN(C(=O)N[C@@H](Cc1ccc(Nc2nccc3ccncc23)cc1)C(=O)O)c1ccccc1Cc1ccccc1`, the melting point stood at 157 °C. `COc1cc(NC(C)=O)c(Cl)cc1C(=O)NN1CCN(C)CC1` displayed a melting point of 198 to 200 °C.

The compound `CC(C)(NC(=O)CCNC(=O)c1ccccc1)c1ccccc1` came in with a melting point of 147 to 148 °C. `CCOC(=O)c1cn2c3c(ccc(C)c3c1=O)CCC2C` (stereo not given) gave a melting point of 106 to 108 °C. With `CS(=O)(=O)OCCC(CCOS(C)(=O)=O)C(F)(F)F`, the melting point lay in the range of 40 to 45 °C. Then `COc1ccc(CCN2C(=O)OC3(CCN(Cc4ccccc4)CC3)C2(C)O)cc1OC` (stereo not given), with 111 to 120 °C; and `Nc1cc(=O)nc(Nc2ccc(F)cc2)n1-c1ccccc1`, with 225 to 227 °C. `Cn1c([N+](=O)[O-])cnc1COc1ccc([N+](=O)[O-])cc1Cl` showed a melting point of 138 °C. As to `CCOc1ccc(-n2cnnc2C(F)(F)F)cc1`, the melting point was 70 °C. `Cc1ccsc1C=C1C(=O)COC1=O` yielded a melting point of 164 to 166 °C. In turn, `C=Cc1ccc(CSCCC(=O)O)cc1` came in with a melting point of 77 to 78 °C. `Cc1ccc(S(=O)(=O)NN=C2C(=O)Nc3cccc(Cl)c32)cc1` returned a melting point of 195 to 196 °C. Turning to `CCc1nn2ccccc2c1N(CCCF)C(C)=O`, the melting point is 76.6 to 79.6 °C. On to `CC(C)(C)OC(=O)Nc1ccc(-c2cccc3ccccc23)cc1[N+](=O)[O-]`, for which the melting point was 60 to 66 °C. Regarding `CSc1ccc2c(C3=C(c4cn(C)c5cc([N+](=O)[O-])ccc45)C(=O)NC3=O)cn(C)c2c1`, the melting point lay within 273 to 275 °C. Then `CC(=O)NC(CC(C)C)C(=O)N1CC1C#N` (racemic), with 112 to 116 °C; and `COc1ccc(C(=O)Nc2cc(-c3c(-c4ccc(F)c(C)c4)nc4ccc(N(C)C)nn34)ccn2)cc1`, with 224 to 225 °C. `N#CCCSCc1nccc(NC(=S)NCC(F)(F)F)n1` showed a melting point of 108 to 110 °C. `O=C(NC(Cc1ccc(OCc2ccccc2)cc1)C(=O)O)c1cc2ccc(-c3ccc(Cl)cc3)cc2s1` (stereo not given) gave a melting point of 237 to 239 °C. The compound `CC(C(=O)CCl)c1cccc(C(=O)c2ccccc2)c1` (stereo not given) displayed a melting point of 60 °C.

For `O=C1NC(C(=O)NCCO[N+](=O)[O-])C(c2cccnc2)S1` (stereo not given), the melting point was 139 to 140 °C.

For the compound `c1ccc2c(NCCN3CCOCC3)noc2c1`, the melting point was 79 to 80 °C. As for `NC(=O)c1nc(N)nc(N)c1-c1ccc(Cl)cc1Cl`, the melting point lay in the range of 298 to 299 °C. `CCOC(=O)Cn1c(=S)c2cc(C)ccc2n(Cc2ccc(Cl)c(Cl)c2)c1=O` returned a melting point of 176 to 177 °C.

The compound `COC1CCN2C(=O)c3cccc([N+](=O)[O-])c3C2C1` (stereo not given) registered a melting point of 132 to 134 °C. On to `Oc1c2ncnc(S)c2nn1-c1ccccc1`, for which the melting point was over 300 °C. For `O=[N+]([O-])c1ccc(-c2cccnc2)s1`, the melting point fell in the range of 169 to 171 °C. The compound `CC(C)(C)n1cc(-c2ccc(Oc3ccccc3)cc2)c2c(N)ncnc21` registered a melting point of 157 to 158 °C. Then `CN1CCC(O)(Cc2ccccc2F)CC1`, with 93 to 95 °C; and `Cc1c(CC(=O)NS(=O)(=O)c2ccccc2)c2cc(OCc3ccc4ccccc4n3)ccc2n1Cc1ccc(Cl)cc1`, with 194 to 197 °C. In the case of `Oc1cccc(C2=CCCN(CCc3ccccc3)C2)c1`, the melting point was 155 °C.

In turn, `COC(=O)CC1(O)C=CC(=O)C=C1` yielded a melting point of 53 to 54 °C. For `Cc1c(C(=O)Nc2ccc(N3CCC(N4CCOCC4)CC3)c(C#N)c2)cnn1-c1ccc(I)cc1` the value was 280 °C; for `O=c1oc2ccc(Cl)cc2cc1S(=O)(=O)Cc1ccc(Cl)c([N+](=O)[O-])c1`, 272 to 275 °C; for `C=C1C(=O)OC2OC3(C)CCC4C(C)CCC1C24OO3` (stereo not given), 161 to 162 °C. Then `CCOC(=O)C(C)ON=C(C)C` (stereo not given), with 59 to 61 °C; and `CCN1CCCCC1c1ccccc1C=CC(=O)Nc1ccccc1` (stereo not given), with 120 to 122 °C. Compound `Cc1ccc(C)c(NC(=O)CN2CCN(c3ncccc3C#N)CC2)c1` gave a melting point of 106 to 108 °C. Compound `O=c1[nH]sc2nc(N3CCCCC3)ncc12` yielded a melting point of 268 to 269 °C. Then `O=C(c1ccccc1)c1cc(Cl)ccc1-n1c(Br)nnc1CN1C(=O)c2ccccc2C1=O`, with 202 to 204 °C. For `COc1ccc(C=CC(=O)C2CC2)cc1OC`, the melting point is 89 to 91 °C. Regarding `Nc1ccc(N2CCN(CCCC(=O)c3ccc(F)cc3)CC2)nc1N`, the melting point was 128 to 130 °C. `COC(=O)c1ncn(CCCc2ccc(OCc3coc(/C=C/c4ccccc4)n3)cc2)c1C(=O)OC`: the melting point is 85 to 86 °C. For the compound `C=CC(O)c1ccc2cc(OCCCCCC)ccc2c1` (stereo not given), the melting point lay in the range of 47 to 48 °C. As to `CN1C(=O)N(CC(CS(=O)(=O)c2ccc(Oc3ccc(Cl)cc3)cc2)N(O)C=O)C(=O)C1(C)C` (single isomer, unassigned; (-)), the melting point was 111 °C. For `COc1ccc2c(c1)c(Cc1nc(-c3cccc([N+](=O)[O-])c3)cs1)c(C)n2C(=O)c1ccc(Cl)cc1`, the melting point was in the range of 162 to 164 °C. Regarding `CS(=O)(=O)c1ccc(-c2cc(-c3nc4ccccc4c(=O)n3-c3ccccc3Cl)sc2N2CCOCC2)cc1`, the melting point was over 275 °C.

Regarding `CCOC(=O)/C=C/c1ccc(O)cc1Oc1ncc(C(F)(F)F)cc1Cl`, the melting point was determined as 124 °C. On to `Cc1cnc2c(c1)C(=O)N(C(C)C)C2=O`, for which the melting point was 127 to 128 °C. With `O=C1OCC2Cc3ccccc3OC12` (stereo not given), the melting point is 107 to 111 °C. In turn, `CCOCC(=O)Nc1ncc(Br)s1` returned a melting point of 100 to 102 °C. `O=c1nc(-c2ccc(N3CCCC3)nc2)sc2ccccc12` had a melting point of 221 to 223 °C. On to `Cc1cc(Cn2nnc(C(N)=O)c2N)cc(Cl)c1C(=O)c1ccc(C(F)(F)F)cc1`, for which the melting point is 201 to 202 °C. Compound `CN(C)CC(=O)N1CCN2C(=O)N(c3cc(Cl)cc(Cl)c3)C(=O)C2(Cc2ccc(Br)cc2)C1` (stereo not given) showed a melting point of 73.5 °C.

The compound `Cc1ccc(S(=O)(=O)N(C)c2ccc([N+](=O)[O-])cc2C)cc1` had a melting point of 103 to 104 °C. `CNC(=O)C(=O)CCCCCCS(=O)(=O)c1ccc2ccccc2c1` displayed a melting point of 108 to 109 °C. `O=C(O)C(=O)c1ccc(OCCOc2ccc3ccccc3c2)c(F)c1` had a melting point of 168 to 169 °C. With `Cc1c(OCC(F)(F)F)ccnc1CSc1nc2cc(N3CCCCC3)c(F)cc2[nH]1`, the melting point lay in the range of 160 to 161 °C. For `Cn1nc(Cl)cc(Br)c1=O`, the melting point fell in the range of 107 to 108 °C. With `O=C(c1cccs1)c1cnn2c(-c3cccc(NC/C=C/c4ccc([N+](=O)[O-])cc4)c3)ccnc12`, the melting point lay in the range of 163 to 166 °C. The compound `COc1cccc2sc(C(=O)Nc3nnn[nH]3)c(OC(C)C)c12` returned a melting point of 233 °C. Then `Cn1cc(-c2cc3nccnc3[nH]2)c2cc(C(=O)O)ccc21`, with 350 °C; and `O=C1CSC(=S)N1N=c1sc2ccc(Cl)cc2s1`, with 312 to 314 °C. For `CCc1nc(-c2ccc(OCCC3CCN(c4ccc(C)nn4)CC3)cc2)no1` the value was 125 °C. The compound `CN1C[C@H]2Cc3ccc(Cl)cc3[C@H](c3ccc(Cl)cc3)[C@H]2C1` (racemic) displayed a melting point of 133 to 135 °C.

As for `COC(=O)c1cc(-c2ccc(Cl)cc2)nn1Cc1ccc(Cl)cc1Cl`, the melting point was determined as 120 °C. Regarding `CN(C)CCOc1cc2c(Nc3ccc(F)c(Cl)c3)c(C#N)cnc2cn1`, the melting point was 131 to 132 °C. As to `CS(=O)(=O)c1cc2c(c(C=O)c1O)CCC2`, the melting point lay in the range of 152 to 153 °C.

`O=C(O)C(Cc1ccccc1)Oc1c(Br)cc(-c2ccc(-c3c(Cc4ccccc4)oc4ccccc34)cc2)cc1Br` (stereo not given) yielded a melting point of 90 to 92 °C. Then `CN1C(=O)C2C3C=CC(C3)C2(c2ccc3c(c2)CCCC3)C1=O` (stereo not given), with 78 to 86 °C; and `COC(=O)c1cc(OC)c(OCc2ccccc2)cc1N=CN(C)C`, with 134 to 140 °C. As for `CC(C)(C)NS(=O)(=O)c1ccc2c(c1)C=C(C(=O)O)C(C(F)(F)F)O2` (stereo not given), the melting point was in the range of 229 to 234 °C. With `COc1c(C)cc2c(c1C)Cc1c-2[nH]c2ccccc12`, the melting point is 177 °C.

The compound `Cc1nc(N2CCN(Cc3ccc(OC(F)F)cc3)C2=O)sc1C(=O)NCc1cccnc1` registered a melting point of 166 to 167 °C.

In turn, `CC(C)c1nc(CO)n(Cc2ccccc2)c1Sc1cc(Cl)cc(Cl)c1` displayed a melting point of 121 to 124 °C. In turn, `CCON=C(CC)C1=C(O)CC(c2ccc(NC=O)cc2)CC1=O` (stereo not given) registered a melting point of 111 to 114 °C. As for `Cc1cc(CCCCCCCc2ccc(C3=NCCO3)cc2)on1`, the melting point was in the range of 66 to 67 °C. In turn, `CC(=CC(=O)O)C[N+](=O)[O-]` displayed a melting point of 85 °C. Turning to `COC(=O)c1cc2nccnc2cc1NC(=O)OC(C)(C)C`, the melting point was 196 to 198 °C.

`N#Cc1cc(O)ccc1Br`: the melting point lay within 183 to 184 °C. As to `COC(=O)c1cccc(-c2cc(CCNC(=O)C3CCC3)c3cc(OC)ccc3c2)c1`, the melting point fell in the range of 128 to 130 °C. For `CCCCCCCCCCCCc1ccc(CO)cc1`, the melting point lay in the range of 44 to 45 °C. Consider `CCOC(=O)c1ccc(C(=O)CN2CCN(c3ccncc3)CC2)cc1`, for which the melting point lay in the range of 147 to 149 °C.

Values taken from a melting point compilation (Tetko et al.; mined from patent text by program, amines drawn as free bases though some values may be those of a salt).
